Measurements published in PubChem BioAssay AID248 (DTP/NCI, 2004).
Where “and” joins values, the source holds several entries; their conditions need not be identical. Equal values may be shown once. Inconclusive results and toxic doses are left out.

Test system: L1210 leukemia ip in BDF1 mice, survival T/C
Assay: NCI In Vivo Anticancer Drug Screen. Data for tumor model L1210 Leukemia (intraperitoneal) in B6D2F1 (BDF1) mice
Details: endpoint: mean survival time, higher = longer survival
Method in brief: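 Value reflects the ratio of survival in compound-treated mice to survival in vehicle-treated controls, with both groups carrying the same transplanted tumor.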

O=C(CBr)OCC1CC2C=CC1C2 (stereo unspecified)
T/C (dose: 13.3 mg/kg/injection, schedule: Q01DX Z (ip), vehicle: methylcellulose (MC)): 93 % of control | T/C (dose: 20.0 mg/kg/injection, schedule: Q01DX Z (ip), vehicle: methylcellulose (MC)): 96 % of control | T/C (dose: 30.0 mg/kg/injection, schedule: Q01DX Z (ip), vehicle: methylcellulose (MC)): 90 % of control

CCCCOC(=O)CSC(=O)C(O)c1ccccc1 (stereo unspecified)
T/C (dose: 100.0 mg/kg/injection, schedule: Q04DX003 (ip), vehicle: saline with Tween-80): 105 % of control | T/C (dose: 200.0 mg/kg/injection, schedule: Q04DX003 (ip), vehicle: saline with Tween-80): 101 % of control | T/C (dose: 400.0 mg/kg/injection, schedule: Q04DX003 (ip), vehicle: saline with Tween-80): 103 % of control

CC1CCC2(CC1)OCC(CCl)O2 (stereo unspecified)
T/C (dose: 222.0 mg/kg/injection, schedule: Q01DX Z (ip), vehicle: saline): 107 % of control | T/C (dose: 333.0 mg/kg/injection, schedule: Q01DX Z (ip), vehicle: saline): 110 % of control | T/C (dose: 500.0 mg/kg/injection, schedule: Q01DX Z (ip), vehicle: saline): 113 % of control

COc1c(N)ccc(-c2ccc(N)c(OC)c2Cl)c1Cl
T/C (dose: 75.0 mg/kg/injection, schedule: Q04DX003 (ip), vehicle: saline with Tween-80): 94 % of control

CCN=C(N)SCCS(=O)(=O)O
T/C (dose: 100.0 mg/kg/injection, schedule: Q04DX002 (ip), vehicle: saline): 98 % of control | T/C (dose: 200.0 mg/kg/injection, schedule: Q04DX002 (ip), vehicle: saline): 95 % of control | T/C (dose: 400.0 mg/kg/injection, schedule: Q04DX002 (ip), vehicle: saline): 92 % of control

CC(C)(C)NC(=O)Oc1ccccc1C(N)=O
T/C (dose: 100.0 mg/kg/injection, schedule: Q01DX009 (ip), vehicle: Klucel (hydroxypropylcellulose) (HPC)): 95 % of control | T/C (dose: 200.0 mg/kg/injection, schedule: Q01DX009 (ip), vehicle: Klucel (hydroxypropylcellulose) (HPC)): 95 % of control | T/C (dose: 400.0 mg/kg/injection, schedule: Q01DX009 (ip), vehicle: Klucel (hydroxypropylcellulose) (HPC)): 94 % of control

O=Cc1c(Cl)n(C(=O)c2ccccc2Cl)c2ccccc12
T/C (dose: 100.0 mg/kg/injection, schedule: Q04DX002 (ip), vehicle: Klucel (hydroxypropylcellulose) (HPC)): 97 % of control | T/C (dose: 200.0 mg/kg/injection, schedule: Q04DX002 (ip), vehicle: Klucel (hydroxypropylcellulose) (HPC)): 86 % of control

c1ccc2c3c(ccc2c1)-c1oncc1CC3
T/C (dose: 100.0 mg/kg/injection, schedule: Q01DX001 (ip), vehicle: saline): 95 % of control | T/C (dose: 200.0 mg/kg/injection, schedule: Q01DX001 (ip), vehicle: saline): 103 % of control | T/C (dose: 400.0 mg/kg/injection, schedule: Q01DX001 (ip), vehicle: saline): 93 % of control

CN(C)C(=O)CCCc1ccc(N(CCCl)CCCl)cc1
T/C (dose: 4.0 mg/kg/injection, schedule: Q12HX018 (ip), vehicle: other): 108 % of control | T/C (dose: 6.0 mg/kg/injection, schedule: Q12HX018 (ip), vehicle: other): 97 % of control | T/C (dose: 8.0 mg/kg/injection, schedule: Q12HX018 (ip), vehicle: other): 103 % of control | T/C (dose: 100.0 mg/kg/injection, schedule: Q01DX001 (ip), vehicle: carboxymethylcellulose (CMC)): 123 % of control | T/C (dose: 200.0 mg/kg/injection, schedule: Q01DX001 (ip), vehicle: carboxymethylcellulose (CMC)): 118 % of control | T/C (dose: 400.0 mg/kg/injection, schedule: Q01DX001 (ip), vehicle: carboxymethylcellulose (CMC)): 103 % of control

C1CN1P1(N2CC2)=NP(N2CC2)(N2CC2)=NP(N2CC2)(N2CC2)=N1
T/C (dose: 10.0 mg/kg/injection, schedule: Q01DX009 (ip), vehicle: saline): 159 % of control | T/C (dose: 20.0 mg/kg/injection, schedule: Q01DX009 (ip), vehicle: saline): 104 % of control | T/C (dose: 75.0 mg/kg/injection, schedule: Q01DX001 (ip), vehicle: saline): 162 % of control

NC(=S)N/N=C\c1c[nH]c2nccnc12
T/C (dose: 25.0 mg/kg/injection, schedule: Q01DX009 (ip), vehicle: water): 108 % of control | T/C (dose: 50.0 mg/kg/injection, schedule: Q01DX009 (ip), vehicle: water): 97 % of control | T/C (dose: 100.0 mg/kg/injection, schedule: Q01DX009 (ip), vehicle: water): 102 % of control | T/C (dose: 200.0 mg/kg/injection, schedule: Q01DX009 (ip), vehicle: water): 90 % of control | T/C (dose: 400.0 mg/kg/injection, schedule: Q01DX009 (ip), vehicle: water): 88 % of control

CCCCOC(=O)c1ccc(OC(=O)NC(C)(C)C)cc1
T/C (dose: 25.0 mg/kg/injection, schedule: Q04DX003 (ip), vehicle: gum acacia): 102 % of control and 90 % of control | T/C (dose: 50.0 mg/kg/injection, schedule: Q04DX003 (ip), vehicle: gum acacia): 94 % of control and 102 % of control | T/C (dose: 100.0 mg/kg/injection, schedule: Q01DX001 (ip), vehicle: gum acacia): 105 % of control | T/C (dose: 100.0 mg/kg/injection, schedule: Q04DX003 (ip), vehicle: gum acacia): 98 % of control and 100 % of control | T/C (dose: 200.0 mg/kg/injection, schedule: Q01DX001 (ip), vehicle: gum acacia): 95 % of control | T/C (dose: 400.0 mg/kg/injection, schedule: Q01DX001 (ip), vehicle: gum acacia): 103 % of control
